In ChEMBL document CHEMBL5335818, “A MassQL-Integrated Molecular Networking Approach for the Discovery and Substructure Annotation of Bioactive Cyclic Peptides” (J Nat Prod, 2024):
Active and inactive are the calls of the source. No cut-off for these calls is given here.

Assays:
[1] = target: Vasopressin V1a receptor (Homo sapiens) (UniProt P37288); test: Antagonist activity at V1A receptor (unknown origin) assessed as reduction in AVP-induced V1A receptor signaling; format: functional
[2] = target: Vasopressin V1a receptor (Homo sapiens) (UniProt P37288); test: Antagonist activity at V1A receptor (unknown origin) transfected in HEK293 cells assessed as inhibition of AVP-induced cell activation at 1 to 31.6 uM incubated for 16 mins by label-free DMR assay; format: functional, cell-based; conditions: filed as antagonist, dose 1-31.6 µM
[3] = target: Vasopressin V1a receptor (Homo sapiens) (UniProt P37288); test: Antagonist activity at V1A receptor (unknown origin) transfected in HEK293 cells assessed as inhibition of AVP-induced cell activation at 31.6 uM incubated for 16 mins by label-free DMR assay relative to control; format: functional, cell-based
[4] = target: Vasopressin V1a receptor (Homo sapiens) (UniProt P37288); test: Activation of endogenous V1A receptor signaling in HEK293 cells at 0.1 to 31.6 uM incubated for 16 mins by label-free DMR assay; format: functional, cell-based; conditions: dose 0.1-31.6 µM
[5] = target: Vasopressin V1a receptor (Homo sapiens) (UniProt P37288); test: Activation of V1A receptor (unknown origin) mediated signaling transfected in HEK293 cells at 0.1 to 31.6 uM incubated for 16 mins by label-free DMR assay; format: functional, cell-based; conditions: dose 0.1-31.6 µM
[6] = target: Muscarinic acetylcholine receptor M3 (Homo sapiens) (UniProt P20309); test: Antagonist activity at endogenous muscarinic M3 receptor in HEK293 cells assessed as inhibition of carbachol-induced cell activation at 1 to 31.6 uM incubated for 16 mins by label-free DMR assay; format: functional, cell-based; conditions: dose 1-31.6 µM
Chain of Muscarinic acetylcholine receptor M3 (Homo sapiens) (P20309 whole entry, looked up): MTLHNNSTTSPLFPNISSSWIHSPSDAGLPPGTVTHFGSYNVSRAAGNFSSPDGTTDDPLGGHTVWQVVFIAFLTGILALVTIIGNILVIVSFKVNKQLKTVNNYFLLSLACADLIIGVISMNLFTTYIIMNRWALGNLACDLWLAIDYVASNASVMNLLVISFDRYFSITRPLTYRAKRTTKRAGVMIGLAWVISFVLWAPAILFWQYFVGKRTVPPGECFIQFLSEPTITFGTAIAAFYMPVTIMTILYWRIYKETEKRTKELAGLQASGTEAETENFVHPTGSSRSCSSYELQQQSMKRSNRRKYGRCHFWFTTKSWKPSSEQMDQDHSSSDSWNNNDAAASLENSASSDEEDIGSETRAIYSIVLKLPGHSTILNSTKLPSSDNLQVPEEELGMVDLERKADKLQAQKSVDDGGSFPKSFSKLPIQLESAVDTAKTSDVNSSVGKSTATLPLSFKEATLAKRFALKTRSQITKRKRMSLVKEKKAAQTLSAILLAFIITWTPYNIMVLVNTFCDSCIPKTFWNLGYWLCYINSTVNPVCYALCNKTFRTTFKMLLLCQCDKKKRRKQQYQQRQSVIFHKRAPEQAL

Chain of Vasopressin V1a receptor (Homo sapiens) (P37288 whole entry, looked up): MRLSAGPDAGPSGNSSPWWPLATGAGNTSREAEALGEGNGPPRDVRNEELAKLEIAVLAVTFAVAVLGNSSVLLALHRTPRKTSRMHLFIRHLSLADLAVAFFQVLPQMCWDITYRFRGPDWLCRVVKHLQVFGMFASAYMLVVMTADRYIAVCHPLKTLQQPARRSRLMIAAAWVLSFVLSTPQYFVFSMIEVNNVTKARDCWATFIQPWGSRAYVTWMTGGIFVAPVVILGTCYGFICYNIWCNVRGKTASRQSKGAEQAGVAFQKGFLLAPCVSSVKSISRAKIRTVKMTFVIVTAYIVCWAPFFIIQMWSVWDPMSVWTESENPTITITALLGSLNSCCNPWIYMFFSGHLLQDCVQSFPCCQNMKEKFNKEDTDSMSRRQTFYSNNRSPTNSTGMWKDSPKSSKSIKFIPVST

Row | Activity [1] | Activity [2] | inhibition [3] | Activity ([1]; filed as antagonist) | Activity [4] | Activity [5] | Activity [6] | Compound
1 | inactive | – | – | – | – | – | – | CC(C)C[C@@H]1NC(=O)[C@H](Cc2ccoc2)N(C)C(=O)[C@H](C(C)C)NC(=O)[C@H](Cc2ccoc2)N(C)C1=O
2 | – | Active | 22% | Active | inactive | inactive | inactive | CC(C)[C@@H]1NC(=O)[C@@H]2CCCN2C(=O)[C@H](Cc2ccoc2)NC(=O)[C@H](Cc2ccoc2)N(C)C1=O
3 | inactive | – | – | – | – | – | – | CC(C)C[C@@H]1NC(=O)[C@H](Cc2ccoc2)N(C)C(=O)[C@H](C(C)C)NC(=O)[C@@H]2CCCN2C1=O
